The text below walks through data of article PMC6938345, “Inhibition of complement activation, myeloperoxidase, NET formation and oxidant activity by PIC1 peptide variants” (PLoS ONE, 2019).

“Also recorded” adds a separate entry of the source.

Assay [1] deals with antibody-initiated complement activation (type O sera + type AB red blood cells). As to the kind of experiment: ABO incompatibility hemolytic assay (CH50-type, ex vivo). The following applies: peptides 1.8 mM. It counts as cell-based, human. The protocol:
For hemolytic complement assays, human red blood cells (RBCs) from type AB donors were purified, washed and standardized to 1 × 10^9 cells/ml, as previously described. Human sera from type O donors at a 20% final concentration was combined with 1 mM PIC1 or sarcosine variant peptides and the volume was brought up to 0.15 ml with GVBS^++ and 0.5 ml RBCs. For factor B-depleted sera hemolytic assays, a final of 0.005% factor B depleted sera was incubated with 1 mM PIC1 or sarcosine variant peptides with 0.1 ml antibody-sensitized sheep red blood cells (EA) in a final volume of 0.75 ml GVBS^++. The samples were incubated for 1 hour at 37 °C and then 1.0 ml of GVBS^-—was added to the factor B-depleted samples to stop the reaction. The samples were spun at 3,000 rpm for 5 minutes and the supernatant was collected and read at 412 nm. Values are represented as a percent of the positive control, which consists of human O sera and AB red blood cells in GVBS^++ buffer.
In order to evaluate the extent to which the peptide variants inhibit antibody-initiated complement activation, we tested them in two hemolytic assays including an ABO incompatibility ex vivo assay (Fig 1A) and a classical pathway CH50-type assay in factor B-depleted sera (Fig 1B). In the ABO incompatibility hemolytic assay, purified erythrocytes from a ‘type AB+’ donor are incubated with sera from a ‘type O’ subject containing anti-A and anti-B antibodies; peptides were tested at 1.8 mM. […] We then performed a CH50-type hemolytic assay, with antibody-sensitized sheep erythrocytes, isolating the classical pathway by utilizing factor B-depleted sera; peptides were tested at 0.4 mM.
Fig 1 Sarcosine variant inhibition of complement activation in hemolytic assays and C1q binding. A) Inhibition of ABO incompatibility hemolysis in a CH50-type assay. Peptides are at a final concentration of 1.8 mM. […] Data are the means of n = 4 independent experiments + SEM. B) Inhibition of classical complement pathway-mediated hemolysis in factor B-depleted sera in a CH50-type assay. Peptides are at a final concentration of 0.4 mM. Data are the means of n = 4 independent experiments + SEM. C) Binding of increasing concentrations of sarcosine variants to purified C1q in an ELISA-type assay. Data are the means of n = 3 independent experiments ± SEM. D) Half-maximal binding concentrations were calculated for each peptide’s binding curve.

In assay [2] the target is T1, C1q (Homo sapiens, UniProt P02745+P02746+P02747).
T1 construct: purchased Complement Technology (Tyler, TX)
T1 sequence (P02745 23-245): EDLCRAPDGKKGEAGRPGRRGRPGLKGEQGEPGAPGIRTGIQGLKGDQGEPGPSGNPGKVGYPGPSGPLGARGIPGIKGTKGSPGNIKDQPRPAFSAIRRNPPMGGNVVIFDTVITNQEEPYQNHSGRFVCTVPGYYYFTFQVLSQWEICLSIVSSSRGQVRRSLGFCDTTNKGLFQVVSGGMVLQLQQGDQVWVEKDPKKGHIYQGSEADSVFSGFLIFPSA
T1 sequence (P02746 28-253): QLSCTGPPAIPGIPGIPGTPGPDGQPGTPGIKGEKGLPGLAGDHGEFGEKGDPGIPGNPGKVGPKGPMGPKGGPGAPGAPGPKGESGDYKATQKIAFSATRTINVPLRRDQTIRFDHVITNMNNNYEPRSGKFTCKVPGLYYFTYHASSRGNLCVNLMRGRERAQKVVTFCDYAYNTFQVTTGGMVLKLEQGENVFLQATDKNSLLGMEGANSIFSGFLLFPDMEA
T1 sequence (P02747 29-245): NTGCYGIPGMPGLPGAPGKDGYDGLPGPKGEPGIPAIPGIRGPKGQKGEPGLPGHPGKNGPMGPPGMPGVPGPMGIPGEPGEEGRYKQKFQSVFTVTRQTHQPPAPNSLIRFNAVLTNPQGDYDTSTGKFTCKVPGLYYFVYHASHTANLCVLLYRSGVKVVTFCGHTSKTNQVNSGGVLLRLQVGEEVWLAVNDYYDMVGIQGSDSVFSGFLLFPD
As to the kind of experiment: C1q binding ELISA-type assay. The following applies: C1q as capture substrate. The protocol: (§1) An Immunlon-2 HB ELISA plate was coated with 1 μg/ml C1q or MPO in bicarbonate buffer overnight at 4 °C. The plates were washed with PBST (phosphate buffered saline + 0.1% Tween) and then blocked with 1% gelatin/PBS for 2 hours at room temperature. After washing, the plates were incubated with PA or sarcosine variant peptides starting at 2.5 mg/ml and then serially diluted in 1% gelatin/PBS for 1 hour at room temperature. After washing, the plates were probed with rabbit anti-PA (developed with Cocalico Biologicals, Reamstown, PA) at 1:1000 in 1% gelatin/PBS for 1 hour, room temperature, followed by a goat anti-rabbit HRP (Sigma Aldrich, St Louis, MO) at 1:1,000 in 1% gelatin/PBS for 1 hour at room temperature with a washing step in between. Wells were developed using TMB substrate solution, stopped using 1 N H2SO4, and read at 450 nm in a plate reader.
We then tested peptide variant binding to C1q in an ELISA-type assay in which the C1q is used as the capture substrate. Binding curves for each peptide is shown in Fig 1C, from which half-maximal binding concentrations were calculated (Fig 1D). […] Higher concentrations of DMSO interfere with the detecting reagents resulting in a partial binding curve.
On the technique in general: An ELISA detects its analyte on a solid surface through an enzyme-linked reagent.

For assay [3], the target named is T2, Myeloperoxidase (MPO) (Homo sapiens, UniProt P05164).
T2 construct: purchased Lee BioSolutions (Maryland Heights, MO)
T2 sequence (P05164 49-745): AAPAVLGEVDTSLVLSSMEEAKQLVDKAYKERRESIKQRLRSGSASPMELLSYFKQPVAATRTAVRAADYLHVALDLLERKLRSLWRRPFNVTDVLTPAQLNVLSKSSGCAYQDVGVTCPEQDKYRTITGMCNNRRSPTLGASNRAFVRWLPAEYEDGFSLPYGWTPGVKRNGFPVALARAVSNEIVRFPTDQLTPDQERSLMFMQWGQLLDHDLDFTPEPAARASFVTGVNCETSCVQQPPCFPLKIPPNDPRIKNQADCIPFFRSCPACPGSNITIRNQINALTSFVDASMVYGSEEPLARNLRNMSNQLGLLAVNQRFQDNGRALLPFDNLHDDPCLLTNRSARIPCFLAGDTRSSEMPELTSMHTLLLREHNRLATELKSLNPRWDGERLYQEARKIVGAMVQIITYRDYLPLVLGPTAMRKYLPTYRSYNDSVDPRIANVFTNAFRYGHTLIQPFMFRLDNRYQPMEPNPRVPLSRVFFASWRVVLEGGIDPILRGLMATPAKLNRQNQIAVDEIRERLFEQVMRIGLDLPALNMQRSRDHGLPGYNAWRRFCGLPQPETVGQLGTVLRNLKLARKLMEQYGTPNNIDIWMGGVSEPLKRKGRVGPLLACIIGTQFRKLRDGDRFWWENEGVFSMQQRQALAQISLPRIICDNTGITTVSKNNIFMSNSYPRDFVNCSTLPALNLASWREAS
As to the kind of experiment: MPO activity assay (TMB-based). It counts as biochemical. The following applies: range of concentrations. As to the method: PIC1 and sarcosine variants were diluted to 25 mg/ml and then serially titrated in a 96 well plate at a volume of 0.02 ml. Myeloperoxidase (MPO) was diluted to 20 μg/ml and 0.02 ml was added to the titrated peptides. TMB (3,3′,5,5′-tetramethylbenzidine) (0.1 ml) was added to each well for 2 minutes, followed by 0.1 ml of 2.5 N H2SO4 for another 2 minutes, and then read on a 96 well plate reader (BioTek) at 450 nm.
In this assay, the variants were tested for MPO inhibition over a range of concentrations (Fig 2A). Strong MPO inhibition was found for all variants with the exception of the no-cysteine variant (C9,10).

The target of assay [4] is T3, MPO (Homo sapiens, UniProt P05164).
T3 construct: purchased Lee BioSolutions (Maryland Heights, MO)
T3 sequence (P05164 49-745): T2 sequence (P05164 49-745)
Kind of assay: MPO binding ELISA-type assay. The following applies: solid phased MPO, plate-based. The protocol:
as §1
We then tested the binding of the peptide variants to solid phased MPO in a plate-based assay. The binding curves are shown in Fig 2C with MPO binding identified for all variants except C9,10. Due to the near complete overlay of the I8 and PA curves, the PA curve is not shown in the graph. Half-maximal (Fig 2D) binding concentrations were calculated from these curves.

Turning to `CC[C@H](C)[C@H](N)C(=O)N[C@@H](C)C(=O)N[C@@H](CC(C)C)C(=O)N[C@H](C(=O)N[C@@H](CC(C)C)C(=O)N[C@@H](CCC(=O)O)C(=O)N1CCC[C@H]1C(=O)N(C)CC(=O)N[C@@H](CS)C(=O)N[C@@H](CS)C(=O)N[C@@H](CCC(N)=O)C(=O)N[C@@H](CCC(=O)O)C(=O)N[C@@H](CCCNC(=N)N)C(=O)N[C@@H](C)C(=O)N[C@@H](C)C(=O)O)[C@@H](C)CC` [I8], the ABO hemolysis in assay [1] (Avg of n = 4, concentration basis of PIC1 not stated) was 13.50 % of Control. Further, the “inhibition of ABO incompatible hemolysis (in words)” value in assay [1] was “to a greater extent than did the PA-dPEG24”. In addition, the “decrease of ABO hemolysis more than PA-dPEG24” value in assay [1] (equimolar basis, P < 0.002) turned out to be 53%. Also, in assay [2], the “binding to C1q (in words)” value is “superior binding to C1q; also recorded: slightly superior to that of PA-dPEG24”. In addition, in assay [3], the “MPO inhibition (in words)” value is listed as “greatest potency”. For the same compound, the “binding to MPO (in words)” value in assay [4] is “superior binding to MPO”.
